Assay results published in US7157408B2, “Quinoline fungicides” (Valent BioSciences Corporation, priority 2004, dated 2007).

Assays:
[1] = tested on: Phaseolus vulgaris (Bush bean cv. Blue Lake 274) leaves; assay: Detached bean leaf bioassay, phytotoxicity rating; format: in vivo; conditions: 200 ppm, scale 0=no, 1=slight, 2=moderate, 3=excessive phytotoxicity
Procedure: Compound solution: Compound solutions were prepared by diluting compound stock solutions (1.0% w/v compound in DMSO) to 200 ppm with 0.01% w/v Triton X-100. Plant material: Middle trifoliate leaves of greenhouse grown Phaseolus vulgaris (Bush bean cv. Blue Lake 274) were excised and placed on a plastic grid above a tray containing moist towels. Treatment method: One half of the adaxial surface of the leaf was treated with the compound solution (100 :L) using a 3 cm Bacti Cell Spreader. A blank consisted of 0.01% w/v Triton X-100. A commercial fungicide control (200 ppm diluted with water) consisted of Scala. After the solutions dried, the trays containing the leaves were covered and held one day in a growth chamber (22C). The adaxial surfaces of the leaves were then inoculated with 5–60 :L droplets of Botrytis cinerea spore solution. Phytotoxicity ratings: Phytotoxicity was rated as 0=no phytotoxicity, 1=slight phytotoxicity, 2=moderate phytotoxicity, or 3=excessive phytotoxicity (Table 2).

Monilinia laxa = assay: Contact evaluation (microtiter plate); format: cell-based
Procedure: (§1) Compound solution: Contact evaluations were conducted to determine the anti-fungal activity of each compound against Botrytis cinerea, Sclerotinia sclerotiorum, Pythium aphanidermatum, Rhizoctonia solani, Cercospora arachidicola, Mycosphaerella fjiensis, and Monilinia laxa. Five milligrams of each compound were dissolved in 0.5 milliliter of DMSO for a compound stock solution of 1.0% w/v. Compound stock solutions were serial diluted with DMSO to 20, 10, and 2 ppm final well concentration. Fungi preparation: Botrytis cinerea spores were taken from 6-week-old cultures grown at 22C on full strength potato dextrous agar (PDA) plates. Sclerotinia sclerotiorum, Pythium aphanidermatum, Rhizoctonia solani, and Monilinia laxa mycelia were taken from 4- to 10-day-old shake flask cultures grown at room temperature on full strength potato dextrous broth (PDB). Cercospora arachidicola mycelia were taken from 10- to 14-day-old shake flask cultures grown at room temperature on a full strength PDB amended with peanut oil. Mycosphaerella fijiensis mycelia were taken from 10- to 14-day-old shake flask cultures grown at room temperature on V8 juice broth. Sclerotinia sclerotiorum, Pythium aphanidermatum, Rhizoctonia solani, Cercospora arachidicola, and Mycosphaerella fijiensis mycelia (0.4 g mycelia) were blended for 45 seconds in 20 mL sterile de-ionized water. Monilinia laxa mycelia (1 g mycelia) was blended for 45 seconds in 30 mL of sterile de-ionized water. Botrytis cinerea spores were diluted with quarter strength PDB to 1×10^5 spores/mL final well concentration. All mycelia were diluted in water (1:5 mycelia:water) before distributing into the wells. Microtiter plate preparation: Compound solution (10 :L), quarter strength PDB (900 :L) and fungi preparation (100 :L) were sequentially distributed into 48-well microtiter plates (n=3 replications/compound/rate). A blank consisted of quarter strength PDB and fungi preparation. Commercial fungicide controls (100 ppm diluted with water) consisted of Scala for Botrytis cinerea, Dithane F-45 for Mycosphaerella fijiensis, and Benlate for Sclerotinia sclerotiorum, Pythium aphanidermatum, Rhizoctonia solani, Cercospora arachidicola, and Monilinia laxa. Plates were shaken in a circular rotator at room temperature for 20 minutes, then incubated at 25C for 24 to 72 hours, depending on the pathogen. Fungal control ratings: Fungal growth in wells containing the compounds were compared to the positive control and fungal inhibition was rated as full, partial, or none. Final readings were the average of the three wells (Table 1).

Pythium aphanidermatum = assay: Contact evaluation (microtiter plate); format: cell-based
Procedure: as §1

Cercospora arachidicola = assay: Contact evaluation (microtiter plate); format: cell-based
Procedure: as §1

Rhizoctonia solani = assay: Contact evaluation (microtiter plate); format: cell-based; conditions: Rhizoctinia solani
Procedure: as §1

Sclerotinia sclerotiorum = assay: Contact evaluation (microtiter plate); format: cell-based; conditions: Sclerotinia sclerotionum
Procedure: as §1

Mycosphaerella fijiensis = assay: Contact evaluation (microtiter plate); format: cell-based
Procedure: as §1

Botrytis cinerea [2] = assay: Contact evaluation (microtiter plate); format: cell-based
Procedure: as §1

Botrytis cinerea [3] = assay: Detached bean leaf bioassay, fungal control; format: in vivo; conditions: 200 ppm, three days after inoculation, 100 minus percent necrotic area
Procedure: Compound solution: Compound solutions were prepared by diluting compound stock solutions (1.0% w/v compound in DMSO) to 200 ppm with 0.01% w/v Triton X-100. Spore solution preparation: Botrytis cinerea spores were taken from 6-week-old cultures grown at 22C on full strength potato dextrous agar (PDA) plates and harvested in 1:16 frozen orange juice concentrate:water. Botrytis cinerea spore solutions were prepared by diluting spore cultures to 5×10^4 spores/mL with 1:16 frozen orange juice concentrate:water. Plant material: Middle trifoliate leaves of greenhouse grown Phaseolus vulgaris (Bush bean cv. Blue Lake 274) were excised and placed on a plastic grid above a tray containing moist towels. Treatment method: One half of the adaxial surface of the leaf was treated with the compound solution (100 :L) using a 3 cm Bacti Cell Spreader. A blank consisted of 0.01% w/v Triton X-100. A commercial fungicide control (200 ppm diluted with water) consisted of Scala. […] Fungal control rating: Three days after inoculation with Botrytis, the percent necrotic area under the inoculation droplet was determined. Since the areas under the blank (0.01% w/v Triton X-100) were 100% infected, fungal control was expressed as 100 minus the percent necrotic area, and thus 0% infected is 100% fungal control (n=3 leaves/compound, 5 inoculation droplets/leaf, Table 2).

OCCc1c(Br)cc(Br)c2cccnc12 [Example 1, 5,7-dibromo-8-(2-hydroxyethyl)quinoline]
Full: Control of fungi (full, partial, none) (Monilinia laxa; fungicide rate 2 ppm) | Control of fungi (full, partial, none) (Monilinia laxa; fungicide rate 10 ppm) | Control of fungi (full, partial, none) (Monilinia laxa; fungicide rate 20 ppm) | Control of fungi (full, partial, none) (Pythium aphanidermatum; fungicide rate 2 ppm) | Control of fungi (full, partial, none) (Pythium aphanidermatum; fungicide rate 10 ppm) | Control of fungi (full, partial, none) (Pythium aphanidermatum; fungicide rate 20 ppm) | Control of fungi (full, partial, none) (Cercospora arachidicola; fungicide rate 10 ppm) | Control of fungi (full, partial, none) (Cercospora arachidicola; fungicide rate 20 ppm) | Control of fungi (full, partial, none) (Rhizoctonia solani; fungicide rate 2 ppm) | Control of fungi (full, partial, none) (Rhizoctonia solani; fungicide rate 10 ppm) | Control of fungi (full, partial, none) (Rhizoctonia solani; fungicide rate 20 ppm) | Control of fungi (full, partial, none) (Sclerotinia sclerotiorum; fungicide rate 2 ppm) | Control of fungi (full, partial, none) (Sclerotinia sclerotiorum; fungicide rate 10 ppm) | Control of fungi (full, partial, none) (Sclerotinia sclerotiorum; fungicide rate 20 ppm) | Control of fungi (full, partial, none) (Mycosphaerella fijiensis; fungicide rate 2 ppm) | Control of fungi (full, partial, none) (Mycosphaerella fijiensis; fungicide rate 10 ppm) | Control of fungi (full, partial, none) (Mycosphaerella fijiensis; fungicide rate 20 ppm) | Control of fungi (full, partial, none) (Botrytis cinerea [2]; fungicide rate 10 ppm) | Control of fungi (full, partial, none) (Botrytis cinerea [2]; fungicide rate 20 ppm)
128 to 131 °C: melting point
None: Control of fungi (full, partial, none) (Cercospora arachidicola; fungicide rate 2 ppm)
Partial: Control of fungi (full, partial, none) (Botrytis cinerea [2]; fungicide rate 2 ppm)
Slight: Phytotoxity [1]
100%: Botrytis cinerea control (Botrytis cinerea [3])
